One data set concerns PDE-IV. In words: Inhibition of Phosphodiesterase IV (PDE-IV) isolated from human U937 cells. In kind it is biochemical. To be noted: U937 cell PDE-IV, 1 μM [3H]-cAMP, 37° C., test compound 0.001 μM to 10 μM. How it is done: This assay was used to biochemically assess the ability of a test compound to inhibit PDE-IV isolated from a U937 cell line, where PDE-IV refers to the cGMP-insensitive, cAMP-selective PDE.
Cell Culture: U937 cells were grown in RPMI 1640 medium supplemented with 10% heat-inactivated fetal calf serum and Penicillin/Streptomycin (100 units/100 μg per mL) in a humidified 5% CO2 atmosphere at 37° C. Starter cells were maintained in continuous logarithmic growth by seeding them in 75 cm^2 vented tissue culture flasks at a concentration of 3×10^4 cells/mL and passing them every 3-4 days when the cells reached approximately 8×10^5 cells/mL. For experiments, 3-4 day starter cells were seeded in 225 cm^2 flasks at 1×10^5 cells/mL and harvested 3-4 days later at approx. 6×10^5 cells/mL.
Isolation of PDE-IV: U937 cells were activated with 10 μM dibutyryl cAMP for a period of 4 hours (to up-regulate PDE-IV) and then harvested by centrifugation at 1200×g for 10 min in 250 mL conical centrifuge tubes. The pellet from each 200 mL flask was resuspended in 5 mL buffer A [10 mM Tris-HCl, 5 mM MgCl2, 4 mM EGTA, 5 mM 2-mercaptoethanol, 1 μM leupeptin, 1 μM pepstatin A, and 5 μM phenylmethyl sulfonyl fluoride (PMSF) (pH 7.8)], and the cells were lysed using 3 cycles of freezing (3 min in dry ice/acetone) followed by thawing (warm water). […] To determine which families of PDEs were present, fractions may be assayed for hydrolytic activity with 1 μM [^3 H]-cAMP or 1 μM [^3 H]-cGMP. Additionally, 1 μM [^3 H]-cAMP assays were conducted in the presence of 10 μM rolipram, 10 μM cGMP, or calmodulin (1 unit/0.4 mL plus 10 μM CaCl2).
When prepared in this manner, approximately 80% of total cAMP PDE activity is eluted by Buffer B containing 0.7 M sodium acetate. This PDE activity consists of>90% PDE-IV (as evidenced by its susceptibility to inhibition by rolipram.
PDE assay: PDE activity was measured using a modification of the radioisotope procedure previously described by Thompson et al. (Thompson, W. J., Terasaki, W. L., Epstein, P. M. and Strada, S. J. Adv, Cyclic Nucleotide Res. 1979, 10, 69). Reaction mixtures (0.4 mL) contain 40 mM Tris-HCl (pH 7.8), 4 mM 2-mercaptoethanol, 5 mM MgCl2, 0.1 μM leupeptin, 0.1 μM pepstatin A, 0.1 μM PMSF, 1 μM [3H]-cAMP or 1 μM [^3 H]-cGMP (~200,000 DPM), and enzyme to initiate the reaction. ^3 H-cAMP substrate was prepared as follows: A stock solution of ^3 H-cyclic nucleotide (1000 μCi/mL) was diluted 1:10 in 50% EtOH. 200 μl of this diluted stock solution was added to a cold (unlabeled) cyclic nucleotide solution, made at a concentration of 4 μM. 100 μl of this solution was used per assay tube to achieve a final concentration of 1 μM cyclic nucleotide per assay tube (200,000 DPM). Enzyme activity was determined at 37° C. Reactions were terminated by boiling, incubating with snake venom, and cooling as previously described (Thompson et al., 1979). The reaction mixture was applied to a (0.8×8.5 cm) column containing 0.4 g Dowex I-X8 affinity resin; reaction tubes were rinsed with 0.5 mL of methanol; and this, along with an extra 1 mL of methanol, was applied to the column to elute the ^3 H-reaction products. After all liquid has passed through the column, the column was plunged with a 12 cc syringe plunger. Each column's eluate was collected in a 20 mL scintillation vial containing 10 mL aquasol-2 and counted by scintillation spectrophotometry. [^3 H]-adenosine or [^3 H]-guanosine recovery was corrected for background DPM determined in the absence of enzyme. The amount of enzyme and duration of assay were adjusted to ensure that less than 25% of the substrate was consumed under these conditions.
Measurements: Inhibition by a test compound was measured as a percent reduction of total PDE activity, and calculated as follows: [formula] where A is the PDE activity (mean DPM-background DPM) in the presence of test compound, and B is the total PDE-IV activity (mean DPM-background DPM) in the absence of test compound. […]

The test system of data set [1] is promoter region of the human calcitonin gene (luciferase reporter, C1-3 cells). In words: Calcitonin/Luciferase Reporter Gene Expression Assay. The conditions noted are these: for fold induction at 30 µM: read-out: TAR (transcription activation ratio).
Protocol: This assay was used to determine the ability of a compound to stimulate transcription of a luciferase reporter gene regulated by 3 kb of the promoter region of the human calcitonin gene.
C1-3 cells were plated at a density of 6,500-7,500 cells per well in a 96-plate microtiter plate. Twenty-four to forty-eight hours later, compounds were added to the wells in triplicate. Compounds were tested at a concentration of 10 μg/mL in 0.5% DMSO.
The production of light is measured on a luminometer.
TAR Ratio: Stimulation of calcitonin promoter-dependent transcription is expressed as a ratio of luciferase activity (LUCI) in the presence of test compound compared to the LUCI activity in the untreated control: [formula]
Data set [2] concerns C1-3 cell line (calcitonin secretion). Description: Calcitonin Secretion/RIA Assay. In kind it is cell-based, human. The conditions noted are these: active if >2.5; for fold induction at 30 µM: Homo sapiens, C13, ratio of calcitonin secretion vs untreated control. The protocol:
Cell Line: C1-3 (Parent Cell Line: TT-medullary thyroid carcinoma),
Reagent A--(Anti-Calcitonin)
Regent C--(Anti-Goat Precipitant)
Regent D--(Zero Standard).
Reagents E-I--(Calcitonin Standards)
Reagents J-K (Calcitonin Controls: Level and Level 2)
1. Glass tubes were labeled to include Total Count (TC), Nonspecific Binding (NSB), Maximum Binding (Bo), Standards, Controls and Patient Sera in duplicate.
2. […] of Standard Zero (Reagent D) was added to tubes 3 through 6 (NSB and Bo).
3. […] of Standards* (Reagents E-1) was added to tubes 7-16 as follows:
4. […] of Patient Serum 1 was added to tubes 21 and 22, Patient Serum 2 was added to tubes 23 and 24, etc.
5. […] of Reagent L (NSB Buffer) was added to tubes 3 and 4.
6. […] of Reagent A (Anti-Calcitonin) was added to all tubes except tubes 1 & 2 (TC) and tube 3 & 4 (NSB). All tubes were vortexed, covered with parafilm or foil and incubated 44±6 hours at 2-8° C.
7. […] All tubes were vortexed, covered with parafilm or foil and incubated 22±3 hours at 2-8° C.
8. Reagent C (Anti-Goat Precipitant) was mixed gently but thoroughly by inverting the vial several times before use. 1 mL Reagent C was added to all tubes except 1 and 2 (TC). Tubes were vortexed and incubated 20 minutes at room temperature.
9. All tubes were centrifuged at 1300-1500×g for 15 minutes at 2-8° C.
10. Supernatant was decanted immediately after centrifugation taking care to leave the precipitate intact.
11. Tubes were counted 4 minutes or longer.
Secretion Ratio: Stimulation of calcitonin secretion is expressed as a ratio of secretion activity in the presence of test compound compared to the secretion activity in the untreated control: [formula]

Regarding `CCCCn1c(=O)c2nn(S(=O)(=O)CCCCl)cc2n(CCC(C)C)c1=O` [Example 20, 6-Butyl-2-(3-chloro-propane-1-sulfonyl)-4-(3-methyl-butyl)-2,4-dihydro-pyrazolo[4,3-d]pyrimidine-5,7-dione], in the data set with PDE-IV, the “% Inhibition of PDE IV (normalized to rolipram)” value was 42%. In addition, the fold induction at 30 µM in data set [1] (Homo sapiens, C13, 12 h) amounted to 1.57; in data set [2] it was 2.25.

Take `O=c1c2cn(S(=O)(=O)CCCCl)nc2n(CC2CC2)c(=O)n1CC1CC1` [Example 22, 2-(3-Chloro-propane-1-sulfonyl)-5,7-bis-cyclopropylmethyl-2,7-dihydro-pyrazolo[3,4-d]pyrimidine-4,6-dione]: in the data set on PDE-IV, the “% Inhibition of PDE IV (normalized to rolipram)” value was determined as 30%. Also, the fold induction at 30 µM in data set [1] (Homo sapiens, C13, 12 h) is 1.6; in data set [2], 2.93.

As for `CCCCn1c(=O)c2nn(S(=O)(=O)c3cccc(C(F)(F)F)c3)cc2n(CCCC)c1=O` [Example 3, 4,6-Dibutyl-2-(3-trifluoromethyl-benzenesulfonyl)-2,4-dihydro-pyrazolo[4,3-d]pyrimidine-5,7-dione], the “% Inhibition of PDE IV (normalized to rolipram)” value in the data set on PDE-IV was 68%. In addition, the fold induction at 30 µM in data set [1] (Homo sapiens, C13, 12 h) was 1.79; in data set [2], 3.79.

Take `CCCCn1c(=O)c2cn(S(=O)(=O)c3cc(Cl)c(Cl)s3)nc2n(CCCC)c1=O` [Example 15, 5,7-Dibutyl-2-(4,5-dichloro-thiophene-2-sulfonyl)-2,7-dihydro-pyrazolo[3,4-d]pyrimidine-4,6-dione]: the “% Inhibition of PDE IV (normalized to rolipram)” value with PDE-IV was found to be 59%. Also, the fold induction at 30 µM in data set [1] (Homo sapiens, C13, 12 h) was determined as 2.93; in data set [2], 3.67.

For `CCCCn1c(=O)c2nn(S(=O)(=O)Cc3ccccc3)cc2n(CCCC)c1=O` [Example 2, 4,6-Dibutyl-2-phenylmethanesulfonyl-2,4-dihydro-pyrazolo[4,3-d]pyrimidine-5,7-dione], the “% Inhibition of PDE IV (normalized to rolipram)” value with PDE-IV is recorded as 35%. Moreover, the fold induction at 30 µM in data set [1] (Homo sapiens, C13, 12 h) is 1.51; in data set [2], 2.55.

Take `Nc1ncnc2c1nc(Sc1ccc(Cl)cc1)n2[C@@H]1O[C@@H]2COP(=O)(O)O[C@H]2[C@H]1O` [Example 8-CPT-cAMP, 8-CPT-cAMP, reference compound]: in data set [1] (Homo sapiens, C13, 12 h, read-out: fold induction of luciferase (control stimulation)), the fold induction at 1000 µM was in the range of 2 to 3.

`CCCCn1c(=O)c2nn(S(=O)(=O)c3cccc4cccnc34)cc2n(CCCC)c1=O` [Example 12, 4,6-Dibutyl-2-(quinoline-8-sulfonyl)-2,4-dihydro-pyrazolo[4,3-d]pyrimidine-5,7-dione]: in the data set on PDE-IV, the “% Inhibition of PDE IV (normalized to rolipram)” value is 41%. Further, the fold induction at 30 µM turned out to be 2.22 in data set [1] (Homo sapiens, C13, 12 h) and 3.83 in data set [2].

As to `CCCCn1c(=O)c2cn(S(=O)(=O)Cc3ccccc3)nc2n(CCCC)c1=O` [Example 19, 5,7-Dibutyl-2-phenylmethanesulfonyl-1,7-dihydro-pyrazolo[3,4-d]pyrimidine-4,6-dione], in the data set with PDE-IV, the “% Inhibition of PDE IV (normalized to rolipram)” value came out at 48%. In addition, the fold induction at 30 µM turned out to be 1.97 in data set [1] (Homo sapiens, C13, 12 h) and 3.43 in data set [2].

`CCCCn1c(=O)c2cn(S(=O)(=O)CCCCl)nc2n(CCCC)c1=O` [Example 13, 5,7-Dibutyl-2-(3-chloro-propane-1-sulfonyl)-2,7-dihydro-pyrazolo[3,4-d]pyrimidine-4,6-dione]: in the data set on PDE-IV, the “% Inhibition of PDE IV (normalized to rolipram)” value is on record as 34%. The fold induction at 30 µM was 1.91 in data set [1] (Homo sapiens, C13, 12 h) and 2.71 in data set [2].

On to `CCCCn1c(=O)c2cn(S(=O)(=O)c3ccc(C(F)(F)F)cc3)nc2n(CCCC)c1=O` [Example 16, 5,7-Dibutyl-2-(4-trifluoromethyl-benzenesulfonyl)-2,7-dihydro-pyrazolo[3,4-d]pyrimidine-4,6-dione], for which, in the data set on PDE-IV, the “% Inhibition of PDE IV (normalized to rolipram)” value is given as 62%. For the same compound, the fold induction at 30 µM in data set [1] (Homo sapiens, C13, 12 h) is 2.61; in data set [2], 3.86.

For the compound `CCCCn1c(=O)c2cn(S(C)(=O)=O)nc2n(CCCC)c1=O` [Example 17, 5,7-Dibutyl-2-methanesulfonyl-2,7-dihydro-pyrazolo[3,4-d]pyrimidine-4,6-dione], the “% Inhibition of PDE IV (normalized to rolipram)” value in the data set on PDE-IV came out at 17%. Besides, the fold induction at 30 µM is 1.95 in data set [1] (Homo sapiens, C13, 12 h) and 3.93 in data set [2].

In the case of `CCCCn1c(=O)c2nn(S(=O)(=O)CCCCl)cc2n(CCCC)c1=O` [Example 1, 4,6-Dibutyl-3-chloropropanesulfonyl-2,4-dihydro-pyrazolo[4,3-d]pyrimidine-5,7-dione], the fold induction at 30 µM stood at 1.34 in data set [1] (Homo sapiens, C13, 12 h) and 4.35 in data set [2].

On to `CCCCn1c(=O)c2nn(S(=O)(=O)c3c(Cl)cc(Cl)cc3Cl)cc2n(CCCC)c1=O` [Example 11, 4,6-Dibutyl-2-(2,4,6-trichloro-benzenesulfonyl)-2,4-dihydro-pyrazolo[4,3-d]pyrimidine-5,7-dione], for which the “% Inhibition of PDE IV (normalized to rolipram)” value in the data set on PDE-IV is 26%. For the same compound, the fold induction at 30 µM in data set [1] (Homo sapiens, C13, 12 h) turned out to be 1.76; in data set [2] it was 4.31.

Regarding `CCCCn1c(=O)n(C)c(=O)c2nn(S(=O)(=O)CCCCl)cc21` [Example 18, 4-Butyl-2-(3-chloro-propane-1-sulfonyl)-6-methyl-2,4-dihydro-pyrazolo[4,3-d]pyrimidine-5,7-dione], in the data set on PDE-IV, the “% Inhibition of PDE IV (normalized to rolipram)” value was 34%. Moreover, the fold induction at 30 µM in data set [1] (Homo sapiens, C13, 12 h) came out at 1.1; in data set [2] it was 1.38.

Consider “4,6-Dibutyl-1-(propane-1-sulfonyl)-1,4-dihydro-pyrazolo[4,3-d]pyrimidine-5,7-dione [Example 9]”, for which the “% Inhibition of PDE IV (normalized to rolipram)” value with PDE-IV is reported as 27%. The “TAR (transcription activation ratio)” value in data set [1] (30 μM, ratio of luciferase activity vs untreated control, active if TAR>1.5) worked out at 1.47. Besides, the “Secretion Ratio” value in data set [2] (30 μM, ratio of calcitonin secretion vs untreated control) stood at 2.71.
